In patent US5011828A, “Immunostimulating guanine derivatives, compositions and methods” (priority 1988, dated 1991):
≈ marks a conversion by molar mass, not a printed value.

Tests used:
[1] = system: CBA/CaJ thymocytes (irradiated BDF1 splenocyte stimulators); test: T cell proliferation in mixed leukocyte cultures, CBA/CaJ thymocytes; type: cell-based, mouse; conditions: Study 3, responder +, stimulator +
Text: A third and fourth study utilized thymocytes from CBA/CaJ mice as the stimulated (responder) cells, and irradiated BDFl mouse spleen cells as the stimulator cells. Two guanosine derivatives of the present invention, 7a8MGuo and 7a8oGuo, were used for these studies, with 8MGuo serving as positive control for one of the studies.
However, in the presence of interleukin-2 (IL-2), those cells develop responsiveness to allogeneic stimulation. The present studies utilizing thymocytes were therefore carried out in the presence of a co-stimulating amount of IL-2.
^1 Plus signs (+) are utilized to indicate the presence of the
^3 Allogeneic cells used to costimulate proliferation, after exposure
T Helper Cell Activation. 1.5×10^5 viable spleen cells from SJL mice or CBA/CaJ mouse thymocytes were cultured with or without an equal number of irradiated (2500 rads) spleen cells from CBA/CaJ or BDFl mice respectively, in 0.2 ml of culture medium in the presence of incremental concentrations of the exemplary 7,8-disubstituted guanine derivatives. The lymphocyte culture medium utilized was that described before, and was further supplemented with 2-mercaptoethanol to a final concentration of 50 uM. Thymocyte cultures also contained 10 percent (v/v) of a concanavalin A-conditioned rat spleen cell medium sold under the name Rat T Cell Monoclone by Collaborative Research. Following 90 hours of culture, one microCurie [^3 H]TdR per culture was admixed, and the resulting culture was maintained for a further six hour time period.
The cultures were harvested with a Brandel cell harvester (M24V, Biological Research and Development Laboratories, Rockville, Md.) onto glass fiber filter disks. Filter disks were transferred to plastic scintillation vials, covered with liquid scintillation cocktail, and counted in a Beckman LS5700 liquid scintillation counter.

physchem = type: physicochemical, human
Text: Solubilities in urine could be expected to be lower than those for water due to the relatively higher salt content in urine than is found in water.
Each sample was filtered through a 5 micron pore-sized filter, diluted as necessary with the HPLC mobile phase, and then quantified by HPLC.

[2] = system: human peripheral blood lymphocytes (sheep red blood cells as antigen); test: Antigen-specific adjuvanticity: direct anti-SRBC plaque forming cells, human system; type: cell-based; conditions: for Peak Direct anti-SRBC PFC/Culture: Table 7, second group
[3] = system: murine lymphocytes (sheep red blood cells as antigen); test: Antigen-specific adjuvanticity: direct anti-SRBC plaque forming cells, murine system; type: cell-based, mouse; conditions: for Direct anti-SRBC PFC/Culture at supraoptimal concentration: 3 × 10^-4 M
How it was run: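 Murine spleen cells (5×10^6 to 10^7) cultured 4 or 5 days in 1.0 ml 5% FCS RPMI 1640, 37 °C, 10% CO2, with or without SRBC immunogen. Anti-SRBC direct plaque-forming cells counted per culture by modified Jerne–Nordin hemolytic plaque assay with guinea pig complement; mean ± standard error at peak concentration.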

- solubility in human urine, in words (physchem): relatively insoluble
- solubility at 18 h (physchem; human, urine): 300 µg/mL (≈ 844 µM)
SMILES: C=CCn1c(=S)n([C@@H]2O[C@H](CO)[C@@H](O)[C@H]2O)c2nc(N)[nH]c(=O)c21 [7a8MGuo, 7-(2-Propenyl)-8-thioxoguanosine]
- [3H] TdR Uptake ([1]; 10^-4 M): 21,400 ± 1200 counts per minute
- [3H] TdR Uptake ([1]; 10^-5 M): 15,300 ± 600 counts per minute
- [3H] TdR Uptake ([1]; 10^-6 M): 11,800 ± 400 counts per minute
- Peak Direct anti-SRBC PFC/Culture ([2]; person a): 673 PFC/Culture
- Peak Direct anti-SRBC PFC/Culture ([2]; person b): 6475 PFC/Culture
- Peak Direct anti-SRBC PFC/Culture ([2]; person c): 3058 PFC/Culture
- Average 1 Log Plaque Values ([2]; Table 9, human, * = single study): 45,630 ± 28,808 per micromole
- Direct anti-SRBC PFC/Culture at supraoptimal concentration ([3]; Table 5, supraoptimal concentration (*)): 925 ± 80 PFC/Culture
- Peak Direct anti-SRBC PFC/Culture ([3]; Table 5, murine system, at peak concentration): 1850 ± 70 PFC/Culture
- Peak Direct anti-SRBC PFC/Culture ([3]; Table 6, murine system, at peak concentration): 1867 ± 150 PFC/Culture
- Peak Direct anti-SRBC PFC/Culture ([3]; Table 6, study a): 1850 ± 50 PFC/Culture
- Direct anti-SRBC PFC/Culture at supraoptimal concentration ([3]; Table 6, study b, supraoptimal amount (*)): 925 ± 80 PFC/Culture
- Peak Direct anti-SRBC PFC/Culture ([3]; Table 6, study c): 1975 ± 109 PFC/Culture
- Direct Anti-SRBC PFC/Culture ([3]; Table 8, 1 × 10^-5 M): 1049 PFC/Culture
- Average 1 Log Plaque Values ([3]; Table 9, murine, * = single study): 326,840 ± 170,907 per micromole
- adjuvanticity higher / more active than comparison compound of U.S. Pat. No. 4,643,992 ([3]; murine system (Table 5), vs 7m8oGuo or compounds of that patent): more than 100%
